In PubChem BioAssay (NCI):
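Five concentrations, 48 hours, 96-well plates. GI50 = concentration required for 50% inhibition of growth. The concentration for full growth arrest is given as TGI.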

Tests used:
Experiment in all cases: NCI tumour cell line growth inhibition, 48 h
HCT-15 colon = test system: HCT-15 colon
LOX IMVI melanoma = test system: LOX IMVI melanoma
MCF7 breast = test system: MCF7 breast
NCI-H226 lung = test system: NCI-H226 lung
OVCAR-4 ovarian = test system: OVCAR-4 ovarian
RPMI-8226 leukemia = test system: RPMI-8226 leukemia
SK-MEL-2 melanoma = test system: SK-MEL-2 melanoma
SK-OV-3 ovarian = test system: SK-OV-3 ovarian
SNB-75 CNS = test system: SNB-75 CNS
UACC-257 melanoma = test system: UACC-257 melanoma

| Compound | GI50 (HCT-15 colon) | TGI (HCT-15 colon) | GI50 (LOX IMVI melanoma) | TGI (LOX IMVI melanoma) | GI50 (MCF7 breast) | TGI (MCF7 breast) | GI50 (NCI-H226 lung) | TGI (NCI-H226 lung) | GI50 (OVCAR-4 ovarian) | TGI (OVCAR-4 ovarian) | GI50 (RPMI-8226 leukemia) | TGI (RPMI-8226 leukemia) | GI50 (SK-MEL-2 melanoma) | TGI (SK-MEL-2 melanoma) | GI50 (SK-OV-3 ovarian) | TGI (SK-OV-3 ovarian) | GI50 (SNB-75 CNS) | TGI (SNB-75 CNS) | GI50 (UACC-257 melanoma) | TGI (UACC-257 melanoma) |
| --- | --- | --- | --- | --- | --- | --- | --- | --- | --- | --- | --- | --- | --- | --- | --- | --- | --- | --- | --- | --- |
| COc1cc(Nc2ncc(-c3ccccc3)o2)cc(OC)c1OC | 0.547 µM | > 25 µM | 2.14 µM | > 25 µM | 0.0695 µM | > 25 µM | 2.97 µM | > 25 µM | 1.05 µM | > 25 µM | 16.3 µM | > 25 µM | 1.52 µM | > 11.6 µM | 2.89 µM | > 25 µM | 0.577 µM | > 19.2 µM | > 15.9 µM | > 25 µM |
| Cc1cc(I)cc(CN(C)CCCCN2CCCC2)c1O | 15.6 µM | 37.3 µM | 15.5 µM | 30.8 µM | 16.9 µM | 36.8 µM | 30 µM | > 100 µM | 41.6 µM | > 100 µM | 15.1 µM | 36 µM | 18.2 µM | 34.8 µM | 21.6 µM | 67.8 µM | 16.5 µM | 36.9 µM | 16.6 µM | 32.8 µM |
| Cc1ccc(Nc2ccnc(Nc3cccc(C(N)=O)c3)n2)cc1O | 7.16 µM | > 25 µM | 3.02 µM | 7.22 µM | 8.28 µM | > 25 µM | 5.43 µM | > 23.7 µM | 6.19 µM | > 25 µM | > 25 µM | > 25 µM | 8.45 µM | > 25 µM | 1.96 µM | 12.1 µM | 0.431 µM | 3.93 µM | 15.5 µM | > 25 µM |
| O=c1c2c(=NCCCN3CCCC3)cc3c(=O)n(CCCN4CCCC4)c(=O)c4c(NCCCN5CCCC5)cc(c(O)n1CCCN1CCCC1)c2c4-3 | 6.91 µM | > 100 µM | 1.87 µM | 4.19 µM | 1.42 µM | 10.9 µM | 1.07 µM | 7.8 µM | 2.73 µM |  | 4.39 µM | 45.8 µM | 2.22 µM | 6.57 µM | 2.4 µM | 6.93 µM | 1.64 µM | 4.1 µM | 2.98 µM | 8.77 µM |
| CC(Cl)CC(=O)Nc1ccc2c(c1)oc(=O)c1cc(NC(=O)CC(C)Cl)ccc12 (stereo not drawn) | 13.2 µM | 45.8 µM | 4.46 µM | 21.9 µM | 7.9 µM | 23.1 µM | 23.6 µM | > 100 µM | 11.3 µM | 29.4 µM | 1.46 µM | 23.4 µM | 2.99 µM | 83.6 µM | 15.6 µM | 76.7 µM | 15.1 µM | 48.7 µM | 23.2 µM | 76.2 µM |
| COc1cc(SC)ccc1C(=O)N1CCCC(C)C1 (stereo not drawn) | > 100 µM | > 100 µM | > 100 µM | > 100 µM | 79 µM | > 100 µM | 80.4 µM | > 100 µM | 58.6 µM | > 100 µM | 69.2 µM | > 100 µM | > 100 µM | > 100 µM | > 100 µM | > 100 µM | > 100 µM | > 100 µM | 78.9 µM | > 100 µM |
| COc1ccccc1OCC(O)CO (stereo not drawn) | > 100 µM | > 100 µM | > 100 µM | > 100 µM | > 100 µM | > 100 µM | > 100 µM | > 100 µM | > 100 µM | > 100 µM | > 100 µM | > 100 µM | > 100 µM | > 100 µM | > 100 µM | > 100 µM | > 100 µM | > 100 µM | > 100 µM | > 100 µM |
| Fc1ccc(-c2c(-c3ccncc3)n(CCN3CCOCC3)c3cccnc23)cc1 | > 25 µM | > 25 µM | > 25 µM | > 25 µM | > 25 µM | > 25 µM | > 25 µM | > 25 µM | > 25 µM | > 25 µM | > 25 µM | > 25 µM | > 25 µM | > 25 µM | > 25 µM | > 25 µM | > 25 µM | > 25 µM | > 25 µM | > 25 µM |
| COc1ccc2c3c([nH]c2c1)[C@H]1C[C@H]2[C@H](C[C@@H](O)[C@H](OC)[C@H]2C(=O)O)CN1CC3 |  | > 100 µM |  | > 100 µM |  | > 100 µM |  | > 100 µM |  | > 100 µM |  | > 100 µM |  | > 100 µM |  | > 100 µM |  | > 100 µM |  | > 100 µM |
| CC(C)=CCC[C@](C)(O)[C@H]1CC[C@]2(C)[C@@H]1CC[C@@H]1[C@@]3(C)CC[C@H](OC(=O)CCC(=O)O)C(C)(C)[C@@H]3CC[C@]12C | 19.5 µM | 48.6 µM | 16.6 µM | 30.7 µM | 29.3 µM | > 100 µM | 16.7 µM | 40.3 µM | 27.6 µM | > 100 µM | 7.65 µM | 52.9 µM | 25.3 µM | 85.6 µM | 47.6 µM | > 100 µM | > 100 µM | > 100 µM | 36.9 µM | > 100 µM |
| CCn1c(-c2cc3ccccc3cc2OC(=O)c2ccccc2)n[nH]c1=S | > 50 µM | > 50 µM | 26.6 µM | > 50 µM | > 50 µM | > 50 µM | > 50 µM | > 50 µM | > 50 µM | > 50 µM | 9.96 µM | 23.8 µM | 25.5 µM | > 50 µM | > 50 µM | > 50 µM | > 50 µM | > 50 µM | > 50 µM | > 50 µM |
| C[C@@H]1CC[C@H]2C(CN3CCN(CC4=C(C(F)(F)F)O[C@@H]5O[C@@]6(C)CC[C@H]7[C@H](C)CC[C@@H]4[C@@]57OO6)CC3)=C(C(F)(F)F)O[C@@H]3O[C@@]4(C)CC[C@@H]1[C@]32OO4 | 1.79 µM | > 37.2 µM | 2.3 µM | > 100 µM | 3.13 µM | > 100 µM | 2.81 µM | > 100 µM | 3.17 µM | > 100 µM | 0.43 µM |  | 10.6 µM | > 100 µM | > 100 µM | > 100 µM | 1.74 µM | > 29.4 µM | 1.95 µM | > 31.5 µM |
| COc1cc(C(=O)c2c(-c3ccccc3)oc3ccccc23)cc(OC)c1O | 0.667 µM | 15.5 µM | 4.33 µM | 21.6 µM | 0.399 µM | 16 µM | 8.14 µM | 37.2 µM | 5.46 µM | 24.4 µM | 1.83 µM | 12.9 µM | 6.78 µM | 29.2 µM | 6.24 µM | 52.1 µM | 0.231 µM | 2.22 µM | 16 µM | 64.3 µM |
